What was measured:
[1] = tested on: mMB-SLCs; assay: Self-renewal, clonogenic assay, mMB-SLCs; format: cell-based, mouse; details: 5 μM
Description: For self-renewal assessment, clonogenic assay was performed as previously described. Briefly: oncospheres were disaggregated with non-enzymatic cell dissociation buffer (Sigma) and cells were plated at clonal density (1-2 cells/mm^2) into 96-well plates and cultured for an appropriate number of days (7-15) until oncospheres were countable.

[2] = target: T1, SET7/9 (Homo sapiens, UniProt Q8WTS6); assay: Methyltransferase panel: SET7/9; format: biochemical; details: substrate histone H3/H4 octamer
T1 sequence (Q8WTS6 1-366): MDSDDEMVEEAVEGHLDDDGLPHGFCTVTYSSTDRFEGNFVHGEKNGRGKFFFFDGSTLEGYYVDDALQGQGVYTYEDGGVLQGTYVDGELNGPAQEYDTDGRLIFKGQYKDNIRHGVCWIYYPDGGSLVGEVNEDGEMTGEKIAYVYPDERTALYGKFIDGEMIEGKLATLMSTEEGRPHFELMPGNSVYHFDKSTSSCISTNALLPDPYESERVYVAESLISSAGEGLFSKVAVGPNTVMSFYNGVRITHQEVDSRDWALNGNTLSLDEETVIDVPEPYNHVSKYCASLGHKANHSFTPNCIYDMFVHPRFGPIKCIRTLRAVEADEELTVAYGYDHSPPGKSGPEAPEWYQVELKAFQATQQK
Description: (§1) MC3629 was tested in the cell free enzymatic assay (EZH2/PRC2) in 10-dose IC50 mode with 2-fold serial dilution starting from 400 μM solution, using various histone substrates (histone H3/H4 octamer, histone H3/H4 tetramer, histone H3, and core histone) and SAM as the co-substrate. […] (Figure 2B, and Supplementary Figure 2).
(§2) The appropriate methyltransferase (MT) substrate (0.05 mg/ml core histone for EZH1 complex, 0.05 mg/ml oligonucleosomes for DOT1L, 5 μM histone H3 (1-21) peptide for G9a, 0.05 mg/ml nucleosomes for MLL1 complex, 0.05 mg/ml core histone for SET7/9, 5 μM histone H4 for PRMT1, and 0.001 mg/ml poly(dI-dC) for DNMT1) was added in freshly prepared Reaction Buffer (50 mM Tris-HCl (pH 8.5), 5 mM MgCl2, 50 mM NaCl, 0.01% Brij35, 1 mM DTT, 1% DMSO). The MT enzyme was delivered into the substrate solution and the mixture was mixed gently. Afterwards, the tested compound dissolved in DMSO was delivered into the enzyme/substrate reaction mixture by using Acoustic Technology (Echo 550, LabCyte Inc. Sunnyvale, CA) in nanoliter range, and 1 μM ^3H-SAM was also added into the reaction mixture to initiate the reaction. The reaction mixture was incubated for 1 h at 30°C and then it was delivered to filter-paper for detection. The data were analyzed using Excel and GraphPad Prism software for IC50 curve fits (for EZH1 complex).

[3] = target: DOT1L (Homo sapiens, UniProt Q8TEK3); assay: Methyltransferase panel: DOT1L; format: biochemical; details: substrate nucleosomes
Description: as §1, §2

[4] = target: T2, G9a (Homo sapiens, UniProt Q96KQ7); assay: Methyltransferase panel: G9a; format: biochemical; details: substrate histone H3 1-21
T2 sequence (Q96KQ7 1-1210): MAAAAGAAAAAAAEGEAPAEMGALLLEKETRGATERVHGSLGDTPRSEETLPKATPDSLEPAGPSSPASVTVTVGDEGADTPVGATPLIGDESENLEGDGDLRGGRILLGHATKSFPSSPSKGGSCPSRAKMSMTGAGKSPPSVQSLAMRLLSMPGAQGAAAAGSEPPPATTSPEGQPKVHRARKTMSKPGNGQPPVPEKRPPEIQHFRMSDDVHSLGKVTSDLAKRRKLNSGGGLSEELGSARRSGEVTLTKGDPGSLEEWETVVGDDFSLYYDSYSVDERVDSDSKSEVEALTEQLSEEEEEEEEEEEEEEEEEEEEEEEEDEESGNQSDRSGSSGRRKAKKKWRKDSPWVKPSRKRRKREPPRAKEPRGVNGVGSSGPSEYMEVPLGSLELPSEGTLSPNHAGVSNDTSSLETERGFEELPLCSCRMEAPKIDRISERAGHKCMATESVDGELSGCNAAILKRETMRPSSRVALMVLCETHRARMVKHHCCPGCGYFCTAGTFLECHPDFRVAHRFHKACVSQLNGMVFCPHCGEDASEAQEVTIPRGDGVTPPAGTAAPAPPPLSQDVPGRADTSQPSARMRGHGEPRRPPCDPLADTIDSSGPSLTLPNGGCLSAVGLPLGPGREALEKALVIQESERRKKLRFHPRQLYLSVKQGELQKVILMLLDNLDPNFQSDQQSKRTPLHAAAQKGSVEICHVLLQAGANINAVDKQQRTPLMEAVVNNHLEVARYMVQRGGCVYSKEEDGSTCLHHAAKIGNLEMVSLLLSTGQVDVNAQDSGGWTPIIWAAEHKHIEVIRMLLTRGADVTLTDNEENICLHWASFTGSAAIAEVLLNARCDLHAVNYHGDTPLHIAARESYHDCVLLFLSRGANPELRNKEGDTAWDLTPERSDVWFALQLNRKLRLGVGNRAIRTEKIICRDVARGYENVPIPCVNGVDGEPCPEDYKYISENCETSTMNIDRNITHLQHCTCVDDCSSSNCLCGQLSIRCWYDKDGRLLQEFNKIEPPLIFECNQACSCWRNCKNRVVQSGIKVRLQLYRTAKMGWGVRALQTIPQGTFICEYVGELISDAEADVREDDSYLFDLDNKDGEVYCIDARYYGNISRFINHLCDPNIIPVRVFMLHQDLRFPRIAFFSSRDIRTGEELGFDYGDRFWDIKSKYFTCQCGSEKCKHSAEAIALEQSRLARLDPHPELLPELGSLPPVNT
Description: as §1, §2

Chain of DOT1L (Q8TEK3 whole entry, species assumed): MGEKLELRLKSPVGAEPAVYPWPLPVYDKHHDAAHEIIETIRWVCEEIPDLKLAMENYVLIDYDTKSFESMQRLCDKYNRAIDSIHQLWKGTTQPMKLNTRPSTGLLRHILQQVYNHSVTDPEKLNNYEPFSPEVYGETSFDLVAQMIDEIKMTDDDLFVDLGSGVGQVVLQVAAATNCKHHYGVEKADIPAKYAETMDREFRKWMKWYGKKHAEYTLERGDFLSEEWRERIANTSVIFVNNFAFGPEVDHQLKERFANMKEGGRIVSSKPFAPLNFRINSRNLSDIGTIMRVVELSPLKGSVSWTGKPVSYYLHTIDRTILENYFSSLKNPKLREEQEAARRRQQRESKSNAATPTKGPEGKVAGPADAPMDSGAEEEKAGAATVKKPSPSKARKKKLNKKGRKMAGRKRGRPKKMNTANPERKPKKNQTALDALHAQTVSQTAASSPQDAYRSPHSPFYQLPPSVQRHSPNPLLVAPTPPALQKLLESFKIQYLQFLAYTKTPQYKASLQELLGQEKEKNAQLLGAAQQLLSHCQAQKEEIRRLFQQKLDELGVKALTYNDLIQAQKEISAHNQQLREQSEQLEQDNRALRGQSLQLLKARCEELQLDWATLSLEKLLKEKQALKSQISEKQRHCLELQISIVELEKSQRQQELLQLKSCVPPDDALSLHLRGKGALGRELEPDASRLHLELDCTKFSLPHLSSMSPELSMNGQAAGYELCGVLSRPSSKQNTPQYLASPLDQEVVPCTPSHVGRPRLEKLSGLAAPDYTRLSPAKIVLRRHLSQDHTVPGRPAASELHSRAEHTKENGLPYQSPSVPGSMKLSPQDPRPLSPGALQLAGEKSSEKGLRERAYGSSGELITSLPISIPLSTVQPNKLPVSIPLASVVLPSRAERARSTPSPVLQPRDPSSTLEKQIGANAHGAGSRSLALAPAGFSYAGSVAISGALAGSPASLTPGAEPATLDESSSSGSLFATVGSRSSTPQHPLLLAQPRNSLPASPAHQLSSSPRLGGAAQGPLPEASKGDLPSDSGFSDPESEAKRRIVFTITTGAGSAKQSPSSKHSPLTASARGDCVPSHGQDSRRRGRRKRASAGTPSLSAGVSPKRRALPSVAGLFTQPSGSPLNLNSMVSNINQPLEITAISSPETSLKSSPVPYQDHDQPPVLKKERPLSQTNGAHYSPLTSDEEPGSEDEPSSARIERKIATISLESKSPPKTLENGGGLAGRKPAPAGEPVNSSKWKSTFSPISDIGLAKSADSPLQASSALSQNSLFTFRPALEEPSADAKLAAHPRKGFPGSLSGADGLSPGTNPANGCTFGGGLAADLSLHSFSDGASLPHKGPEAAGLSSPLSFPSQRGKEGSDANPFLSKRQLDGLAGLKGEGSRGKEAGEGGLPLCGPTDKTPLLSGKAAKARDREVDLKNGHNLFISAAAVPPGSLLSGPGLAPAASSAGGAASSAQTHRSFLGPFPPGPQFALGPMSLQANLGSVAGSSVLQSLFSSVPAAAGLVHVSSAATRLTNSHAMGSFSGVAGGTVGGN

## Cc1cc(C)c(CNC(=O)c2cnn(-c3ccccc3)c2C)c(=O)[nH]1 [MC3629, N-((4,6-dimethyl-2-oxo-1,2-dihydropyridin-3-yl)methyl)-5-methyl-1-phenyl-1H-pyrazole-4-carboxamide]
[1]
  self-renewal: significantly reduced
[2]
  inhibition at 200 µM: 5.2%
[3]
  inhibition at 200 µM: 3%
[4]
  inhibition at 200 µM: 5.1%

— PMC5620277, “The histone methyltransferase EZH2 as a druggable target in SHH medulloblastoma cancer stem cells” (Oncotarget, 2017)
